Values of other authors in PMC8330515 (Bioorganic & medicinal chemistry letters, 2020).

System: normal prostate epithelial cells
Details: read-out: 24 h IC50 in normal prostate epithelial cells

CCN(CC)C(=S)SCc1ccc(NC(=O)CC[C@H](N)C(=O)O)cc1 [GGTDTC]
IC50: > 15 µM
